{
  "source": "patent US20070066996A1",
  "about": "“Modafinil-based neurorehabilitation of impaired neurological function associated with brian injury” (priority 2003, published 2007)",
  "key": {"[1]": {"test_system": "individuals who have sustained a brain injury", "settings": "individuals with brain injury; L-dopa at high doses; co-filed international application; cited from earlier work"}, "[2]": {"test_system": "chronic post-TBI patients with motor deficits", "test": "Pinch strength (mechanic dynamometer), open-label modafinil study", "format": "in vivo, human", "procedure": "(§1) Two chronic post-TBI patients with motor deficits were treated for two consecutive weeks with modafinil (a single 200 mg/day dose, orally). Additionally, three hours after administration of the drug, these patients received one hour of occupational therapy in the morning and one hour of motor training at home in the afternoon. Primary outcomes were the pinch strength measured with a mechanic dynamometer, the number of blocks that the patient can pass in one minute in a box and block test, and the time required to complete a grooved pegboard test as described below.\nThe Pinch Force Dynamometer is a hand-held device capable of measuring instantaneous strength of the thumb and opposing finger or groupings of fingers as a function of time. The principle components are a pinch force transducer, instrumentation amplifier, and associated cables. Dynamic voltage representing instantaneous finger(s) pinch strength as a function of time is taken from the output of the instrumentation amplifier and sent to a laptop computer or to a data acquisition system for data manipulation, display, correlation with other data sources, and/or storage.\n(§2) Patients were assessed at baseline, treated for two weeks, assessed at the end of the treatment, and assessed again 90 days after commencement of treatment.\n(§3) Patients were chronic post-traumatic brain injured individuals that were treated for two consecutive weeks with a 200 mg/day, single dose, of modafinil from Monday through Friday. Additionally, the patients received one hour of occupational therapy three hours after the oral intake of the drug and one hour of motor training at home. Primary outcomes were the pinch strength measured with a mechanic dynamometer, the number of blocks that the patient could pass in one minute in a box and block test, and the time required to complete a grooved pegboard at baseline. Primary outcomes were assessed at two weeks and 90 days from commencement of treatment."}, "[3]": {"test_system": "chronic post-TBI patients with motor deficits", "test": "Box and Block Test of manual dexterity, open-label modafinil study", "format": "in vivo, human", "procedure": "as §1\nThe “Box and Block Test” is a standardized test of manual dexterity, which provides a baseline for upper extremity manual dexterity and gross motor coordination. The test is quick and simple to administer and uses […] (1″) colored wooden blocks.\nas §2, §3"}, "[4]": {"test_system": "extracellular dopamine", "settings": "Wisor et al., J. Neuroscience 2001; cited from earlier work"}, "[5]": {"test_system": "dopamine transporter knock-out mice", "settings": "Wisor et al. 2001; cited from earlier work"}, "[6]": {"test_system": "chronic post-TBI patients with motor deficits", "test": "Open-label study: overall functional motor performance and reported adverse effects", "format": "in vivo, human", "settings": "two patients", "procedure": "A clinical study was performed to evaluate the effect of modafinil on the functional outcome of the paretic arm of patients recovering from a brain injury.\nas §1, §2, §3"}},
  "note": "“Also recorded” adds a separate entry of the source. Marks after values point to notes of the source that are not given here.",
  "data": [
    {"smiles": "N[C@@H](Cc1ccc(O)c(O)c1)C(=O)O", "note": "[L-dopa]", "values": [
      {"measurement": "treating impaired neurological function, including emergence from coma and other altered consciousness states", "setting": "[1]", "value": "particularly effective"}
    ]},
    {"smiles": "CN1CCc2cccc3c2[C@H]1Cc1ccc(O)c(O)c1-3", "note": "[apomorphine]", "values": [
      {"measurement": "treating impaired neurological function, including emergence from coma and other altered consciousness states", "setting": "[1]", "value": "particularly effective"}
    ]},
    {"smiles": "NC(=O)C[S+]([O-])C(c1ccccc1)c1ccccc1", "note": "(stereo not drawn) [modafinil, 2-[(diphenylmethyl)sulfinyl]acetamide]", "values": [
      {"measurement": "Pinch Strength", "setting": "[2]; Patient 1, affected hand, 14 days, modafinil 200 mg/day orally for two weeks plus therapy, baseline 14.3", "value": 16.8, "unit": "Pounds"},
      {"measurement": "Pinch Strength", "setting": "[2]; Patient 1, affected hand, 90 days from commencement, baseline 14.3", "value": 17.6, "unit": "Pounds"},
      {"measurement": "Pinch Strength", "setting": "[2]; Patient 1, intact hand, 14 days, baseline 13.5", "value": 14.6, "unit": "Pounds"},
      {"measurement": "Pinch Strength", "setting": "[2]; Patient 1, intact hand, 90 days, baseline 13.5", "value": 15, "unit": "Pounds"},
      {"measurement": "Pinch Strength", "setting": "[2]; Patient 2, affected hand, 14 days, baseline 17", "value": 21.3, "unit": "Pounds"},
      {"measurement": "Pinch Strength", "setting": "[2]; Patient 2, affected hand, 90 days, baseline 17", "value": 19.3, "unit": "Pounds"},
      {"measurement": "Pinch Strength", "setting": "[2]; Patient 2, intact hand, 14 days, baseline 23", "value": 24, "unit": "Pounds"},
      {"measurement": "Pinch Strength", "setting": "[2]; Patient 2, intact hand, 90 days, baseline 23", "value": 23.6, "unit": "Pounds"},
      {"measurement": "Box and Block", "setting": "[3]; Patient 1, affected hand, 14 days, baseline 34", "value": "46 # blocks passed in 1 min"},
      {"measurement": "Box and Block", "setting": "[3]; Patient 1, affected hand, 90 days, baseline 34", "value": "46 # blocks passed in 1 min"},
      {"measurement": "Box and Block", "setting": "[3]; Patient 1, intact hand, 14 days, baseline 54", "value": "59 # blocks passed in 1 min"},
      {"measurement": "Box and Block", "setting": "[3]; Patient 1, intact hand, 90 days, baseline 54", "value": "55 # blocks passed in 1 min"},
      {"measurement": "Box and Block", "setting": "[3]; Patient 2, affected hand, 14 days, baseline 30", "value": "40 # blocks passed in 1 min"},
      {"measurement": "Box and Block", "setting": "[3]; Patient 2, affected hand, 90 days, baseline 30", "value": "40 # blocks passed in 1 min"},
      {"measurement": "Box and Block", "setting": "[3]; Patient 2, intact hand, 14 days, baseline 54 (table) / 62", "value": "65 # blocks passed in 1 min"},
      {"measurement": "Box and Block", "setting": "[3]; Patient 2, intact hand, 90 days, baseline 54 (table) / 62", "value": "76 # blocks passed in 1 min"},
      {"measurement": "extracellular dopamine", "setting": "[4]", "value": "increased extracellular dopamine"},
      {"measurement": "response to the action of modafinil", "setting": "[5]", "value": "unresponsive"},
      {"measurement": "persistence of the improvements", "setting": "[6]; 90 days after commencement of treatment", "value": "sustained at 90 days"},
      {"measurement": "adverse effect reported with the medication", "setting": "[6]; modafinil 200 mg/day orally, two weeks", "value": "Neither of the patients reported any adverse effect; also recorded: did not report any adverse effect"},
      {"measurement": "functional motor performance in the intact hand", "setting": "[6]; two-week course of modafinil", "value": "slight improvement"},
      {"measurement": "functional motor performance in the paretic hands", "setting": "[6]; two-week course of modafinil 200 mg/day orally", "value": "improved functional motor performance"}
    ]}
  ]
}
